In article PMC12051030, “Identification of inhibitors of the Salmonella FraB deglycase, a drug target” (FEBS Open Bio, 2025):
Like-named read-outs stand apart in the source and are kept apart here.

Experiments:
[1] = target: T1, FraB (Salmonella enterica subsp. enterica serovar Typhimurium, UniProt Q8ZLD0); assay: FraB assay, Michaelis–Menten kinetics with substrate; assay type: biochemical
Method: The substrate for FraB, 6‐P‐F‐Asp, was synthesized as previously described. FraB activity was monitored as described previously, with the following changes. The final reaction (30 μL) consisted of 25 mM HEPES pH 8 (at 20 °C), 5 mM MgCl2, 0.1 mM ethylene glycol tetraacetic acid (EGTA), 0.5 mM NAD^+, 1 mU G6PD from Leuconostoc mesenteroides (#LS003981; Worthington Biochemicals, Lakewood, NJ, USA), 100 nM His6‐FraB, and 0–3 mM 6‐P‐F‐Asp. The reaction mixture without substrate (29 μL) was added to one well of a 384‐well polystyrene white μClear® microplate (#781095; Greiner Bio‐One, Monroe, NC, USA) and incubated at 37 °C for 2 min, prior to the addition of 1 μL substrate to initiate the reaction. NADH generation was monitored using either absorbance (340 nm) or fluorescence (350 nm excitation, 450 nm emission) and with either an INFINITE M1000 PRO (Tecan, Mannedorf, Switzerland) or Synergy H1 (Biotek, Winooski, VT, USA) plate reader. Absorbance/fluorescence was plotted against time and slopes were obtained by linear regression analyses. These slopes were converted into initial velocities by dividing them by either the absorbance extinction coefficient (ε340 = 6,220 M ^−1·cm^−1) or the molar fluorescence determined based on standard curves obtained in different plate readers (23,646 RFUs·μM ^−1, Tecan; 285,108 RFUs·μM ^−1, Biotek; Fig. S2). […]

[2] = target: T1, FraB; settings: previously reported; cited from earlier work
[3] = substrate: O=C(O)C[C@H](NCC1(O)O[C@H](COP(=O)(O)O)[C@@H](O)[C@@H]1O)C(=O)O; assay: FraB assay, Michaelis–Menten kinetics with substrate; assay type: biochemical, Salmonella; settings: pH 8.0
Method: The substrate for FraB, 6‐P‐F‐Asp, was synthesized as previously described. FraB activity was monitored as described previously, with the following changes. The final reaction (30 μL) consisted of 25 mM HEPES pH 8 (at 20 °C), 5 mM MgCl2, 0.1 mM ethylene glycol tetraacetic acid (EGTA), 0.5 mM NAD^+, 1 mU G6PD from Leuconostoc mesenteroides (#LS003981; Worthington Biochemicals, Lakewood, NJ, USA), 100 nM His6‐FraB, and 0–3 mM 6‐P‐F‐Asp. The reaction mixture without substrate (29 μL) was added to one well of a 384‐well polystyrene white μClear® microplate (#781095; Greiner Bio‐One, Monroe, NC, USA) and incubated at 37 °C for 2 min, prior to the addition of 1 μL substrate to initiate the reaction. NADH generation was monitored using either absorbance (340 nm) or fluorescence (350 nm excitation, 450 nm emission) and with either an INFINITE M1000 PRO (Tecan, Mannedorf, Switzerland) or Synergy H1 (Biotek, Winooski, VT, USA) plate reader. Absorbance/fluorescence was plotted against time and slopes were obtained by linear regression analyses. These slopes were converted into initial velocities by dividing them by either the absorbance extinction coefficient (ε340 = 6,220 M ^−1·cm^−1) or the molar fluorescence determined based on standard curves obtained in different plate readers (23,646 RFUs·μM ^−1, Tecan; 285,108 RFUs·μM ^−1, Biotek; Fig. S2). These initial velocities (v o) in turn were plotted against [6‐P‐F‐Asp] to obtain Michaelis–Menten curves that were fit to the formula v o = (V max × [S])/(K m + [S]) by Kaleidagraph (Version 4.5.3; Synergy Software, Reading, PA, USA). The activity of recombinant FraB (Fig. S3) was similar to that as reported previously.

[4] = other: newer batches of substrate
[5] = other: representative Michaelis-Menten plot, Fig. S3, curve-fit errors

Row | Molecule | K m ([1]; approximate value used for [S]/K m) | K m ([1]; newer batches of substrate) | K m [2] | k cat [2] | k cat/K m [2] | kcat [3, 4] | kcat/Km [3, 4] | Km [3, 5] | kcat [3, 5] | kcat/Km [3, 5]
1 | O=C(O)C[C@H](NCC1(O)O[C@H](COP(=O)(O)O)[C@@H](O)[C@@H]1O)C(=O)O (stereo partly shown) [6‐P‐F‐Asp, 6‐phosphofructose‐aspartate] | ~ 40 μM | 0.042 ± 0.007 mM | 116 ± 12 µM | 1.05 ± 0.167 s⁻¹ | 543 min^−1 mM ^−1 |  |  |  |  | 
2 | FraB (Salmonella enterica subsp. enterica serovar Typhimurium str. LT2) (protein) MMGMKETVSNIVTSQAEKGGVKHVYYVACGGSYAAFYPAKAFLEKEAKALTVGLYNSGEFINNPPVALGENAVVVVASHKGNTPETIKAAEIARQHGAPVIGLTWIMDSPLVAHCDYVETYTFGDGKDIAGEKTMKGLLSAVELLQQTEGYAHYDDFQDGVSKINRIVWRACEQVAERAQAFAQEYKDDKVIYTVASGAGYGAAYLQSICIFMEMQWIHSACIHSGEFFHGPFEITDANTPFFFQFSEGNTRAVDERALNFLKKYGRRIEVVDAKELGLSTIKTTVIDYFNHSLFNNVYPVYNRALAEARQHPLTTRRYMWKVEY |  |  |  |  |  | 0.95 ± 0.012 s⁻¹ | 1,357 min^−1 mM ^−1 | 67 ± 8 µM | 1.16 ± 0.00317 s⁻¹ | 1040 min⁻¹ mM⁻¹
